Test results from US8580843B2, “Use of diindolylmethane (DIM) compounds and derivatives as neuroprotective agents” (Colorado State University Research Foundation, priority 2008, dated 2013).

How the values were obtained:
[1] = tested on: NOS2 protein; assay: Immunoblotting of NOS2 protein in astrocytes exposed to MPTP and TNF-α/IFN-γ; format: cell-based, mouse; conditions: FIG. 7(C), concentration not given
Description: Primary Cell Isolation. Cortical astrocytes were isolated from day-1 old C57B1/6 or transgenic mouse pups according to procedures described previously (Aschner and Kimelberg, 1991), and purity confirmed through immunofluorescent staining using antibodies against GFAP and Iba1. Briefly, pups were euthanized by decapitation under isofluorane anesthesia and cortices (astrocytes) or striatum (neurons) rapidly dissected out, and meninges removed. Tissue was subject to digestion with Dispase (1.5 U/ml), and selection of astrocytes was performed by complete media change 24 hrs after plating to remove non-astroglial cell types by serum shock. This method routinely results in cultures that are approximately 99% pure astrocytes, with less than 1% contaminating microglial cells (Supplementary FIG. 1). Astrocyte cultures were maintained at 37° C. and 5% CO2 in minimum essential media supplemented with 10% heat-inactivated fetal bovine serum and a penicillin (0.001 mg/ml), streptomycin (0.002 mg/ml), and neomycin (0.001) antibiotic cocktail. Cell media was changed 24 hrs prior to all treatments. […]
Western Blotting. […] Protein was quantified using the BCA assay (Pierce, Rockford Ill.), and 20 μg of protein were separated by standard SDS-PAGE using a 6% slab gel (BioRad, Hercules Calif.) followed by semi-dry transfer to polyvinylidene fluoride (PVDF) membrane (Pall Corp., Pensacola, Fla.). […]

[2] = tested on: 3-nitrotyrosine protein nitration in astrocytes; assay: Immunofluorescence of 3-nitrotyrosine adducts (protein nitration) in primary astrocytes treated with MPTP and cytokines; format: cell-based, mouse
Experimental: Immunofluorescence. Primary astrocytes were grown to confluence on 20 mm serum-coated glass coverslips and treated with saline or MPTP (10 μM), TNF-α (10 pg/ml), and IFN-γ (1 ng/ml) with or without DIM-C-pPhtBu (10 μM), rosiglitazone (10 μM), the NOS2 inhibitor AMT (25 nM) or NOS 1 inhibitor 7-NI (10 μM), or a DMSO vehicle control 8 hours prior to analysis. Immunofluorescence to confirm culture purity was conducted on cells grown to confluence on the 20 mm glass coverslips. Blocking and antibody hybridization was conducted in 1% BSA (w/v) in PBS, and all washes were conducted in PBS. Images were acquired using a Zeiss 20× air PlanApochromat objective and 6-8 microscopic fields were examined per treatment group over no less than three independent experiments. Fluorescent secondary antibodies were used to detect GFAP (488 nmcx/519 nmcm) and Iba1 or nitrosylated protein (647 nmcx/668 nmcm), respectively, while mounting medium containing DAPI (360 nmcx/460 nmcm) was used to identify cell nuclei.
The effect of NOS2 induction by MPTP and inflammatory cytokines on global protein nitration following NO/peroxynitrite (ONOO—) formation in astrocytes was examined by immunofluorescence (FIG. 3). Immunofluorescence using antibodies against GFAP (FITC) and 3-nitrotyrosine adducts (Cy5) was employed to measure the extent of protein nitration within astrocytes treated with MPTP and cytokines, with or without inclusion of DIM-C-pPhtBu (10 μM), rosiglitazone (10 μM), the high-affinity NOS2 inhibitor AMT (25 nM), the NOSI inhibitor 7-NI (10 μM) or a DMSO vehicle control. […] Co-treatment of astroytes with DIM-C-pPhtBu prevented MPTP-induced increases in nitration, resulting in similar levels of 3-nitrotyrosine adducts as saline-treated control cells (FIG. 3C). Mean intracellular fluorescence for 3-nitrotyrosine was quantified and compared between each treatment group (FIG. 3D).

[3] = tested on: NF-kB-regulated genes; assay: qPCR array analysis of NF-kB-regulated transcripts in primary astrocytes; format: cell-based; conditions: astrocytes + MPTP and TNF/IFN; DIM-C-pPhOCH3 1 uM, DIM-C-pPhtBu concentration not given; FIG. 11(A)
Experimental: Expression of inflammatory genes in astrocytes is largely regulated through the NF-kB signaling pathway. Primary cultured astrocytes were treated with MPTP and TNF/IFN in the presence or absence DIM-C-pPhOCH3 (DIMS, 1 uM), DIM-C-pPhtBu (DIM4), rosiglitazone (Ro, 10 uM), or vehicle (DMSO) and subjected to qPCR array analysis of NF-kB-regulated transcripts (Superarray Biosciences). […] (n=4 biological replicates)

Compound	Suppression of NOS2 protein expression [1]	Protein nitration in primary astrocytes induced by MPTP and TNF-α/IFN-γ ([2]; FIG. 7(D), concentration not given)	Neuroinflammatory gene expression (TNF Receptor, Toll Receptor, Interleukin 1beta) [3]	MPTP-induced increase in 3-nitrotyrosine formation ([2]; 10 μM co-treatment, astrocytes, FIG. 3D)
COc1ccc(C(c2c[nH]c3ccccc23)c2c[nH]c3ccccc23)cc1 [DIM-C-pPhOCH3, 1,1-bis(3′-indolyl)-1-(p-methoxyphenyl)methane]	suppression of NOS2 protein expression	prevents protein nitration	suppressed neuroinflammatory gene expression	
CC(C)(C)c1ccc(C(c2c[nH]c3ccccc23)c2c[nH]c3ccccc23)cc1 [DIM-C-pPhtBu, 1,1-bis(3′-indolyl)-1-(p-t-butylphenyl)methane]			suppressed neuroinflammatory gene expression	prevented
CN(CCOc1ccc(CC2SC(=O)NC2=O)cc1)c1ccccn1 (stereo not drawn) [rosiglitazone, 5-((4-(2-(methyl-2-pyridinylamino)ethoxy)phenyl)methyl)-2,4-thiazolidinedione, reference compound]	suppression of NOS2 protein expression			
